Values joined by “and” are separate entries in the source; they are usually repeats but may differ in a detail not shown here. Equal values may be shown once. One block for each molecule: values may come before it.
Tested on: 519858-162-T-J1-PDC complex spheroid viability
Assay: Anticancer human tumor 519858-162-T-J1-PDC patient-derived colon adenocarcinoma cell line growth inhibition [GQUAD]
Conditions: for viability, T/C: stronger effect = lower value
Source text: DNA G-quadruplex Stabilizer Agents in Combinations in Complex Spheroids
A high-throughput screen of multi-cell type tumor spheroids was designed to identify active combinations of DNA G-quadruplex stabilizer agents and targeted small molecules. Complex spheroids include a stromal component modeled by human endothelial cells (HUVEC) and fibroblasts modeled by human mesenchymal stem cells (MSCs). The concentration ranges selected for each drug and investigational agent were based upon clinically achievable concentrations if the clinical Cmax of the agent was known.
Compounds. The drugs and investigational agents: pidnarulex (CX-5461; NSC782164), APTO-253 (NSC789042), BRACO-19 (NSC847499), peposertib (NSC802822), ceralasertib (NSC780249), elimusertib (NSC800525), camonsertib (NSC841442), AZD-1390 (NSC803789), olaparib (NSC753686), talazoparib (NSC767125), ART-558 (NSC835418), sotorasib (NSC818433), MRTX-1133 (NSC836407), SN-38 (NSC673596), topotecan (NSC609699), etoposide (NSC141540), doxorubicin (NSC123127), gemcitabine (NSC613327), 5-fluorouracil (NSC19893), paclitaxel (NSC125973), vemurafenib (NSC761431), panobinostat (NSC761190), R-306465 (JNJ-16241199; NSC773264), adavosertib (NSC754352), TP-3654 (NSC805149), carboplatin (NSC241240), KSQ-4279 (NSC840948), and staurosporine (NSC755774) were obtained from the National Cancer Institute (NCI) Developmental Therapeutics Program Chemical Repository (34). The FDA-approved anticancer drug set is available from the NCI Developmental Therapeutics Program. […] The stock solutions were prepared in dimethyl sulfoxide (DMSO, Sigma-Aldrich, St. Louis, MO, cat. D2650) at 800-fold the tested concentration and stored at -70 degrees C prior to their use. All drugs and investigational agents were tested over a range starting from a high concentration at or near the clinical Cmax and decreasing in half-log increments. If the clinical Cmax for an agent had not been determined, the highest concentration tested was 10 microM.
2.3 Cell Culture. All cells were maintained in an incubator at 37 degrees C and 5% CO2 with 95% humidity. The PDC lines were cultured according to standard operating procedures established by the NCI PDMR. All PDCs were thawed and cultured in Matrigel-coated flasks prepared with a working solution of 1X Ham's F-12 nutrient mix, without supplementation (Invitrogen, cat. 11765054), 100 U/mL penicillin-streptomycin (Invitrogen, cat. 15140122), and 2.5% Matrigel (Corning Inc., cat. 354248) for the first three passages. The 857933-349-R-J2-PDC line was cultured in 6C/Colon 1B media, which includes advanced DMEM/F-12 (Thermo Fisher Scientific, cat. 12634028), 10 mM HEPES (Thermo Fisher Scientific, cat. 15630080), 1X GlutaMAX supplement (Thermo Fisher Scientific, cat. 35050061), 0.1 mg/mL primocin (InvivoGen, cat. ant-pm-2), 10% defined fetal bovine serum, heat inactivated (HyClone Laboratories Inc., cat. SH30070.03HI), 50% L-WRN conditioned media (ATCC, cat. CRL-3276), 1.25 mM N-Acetyl-L-cysteine (Sigma-Aldrich, cat. A9165), 10 mM nicotinamide (Sigma-Aldrich, cat. N0636), 1X B-27 supplement (Thermo Fisher Scientific, cat. 17504044), 1X N-2 supplement (Thermo Fisher Scientific, cat. 17502048), 10 microM Y-27632 dihydrochloride (Tocris Bioscience, cat. 1254), and 50 ng/mL human EGF recombinant protein (Thermo Fisher Scientific, cat. PHG0311). The 485176-168-R4-J1-PDC line was cultured in Panc media, which includes all 6C/Colon 1B media components plus 100 ng/mL human FGF-10 (Thermo Fisher Scientific, cat. 100-26), 500 nM SB-431542 (Selleckchem, cat. S1067), and gastrin (Tocris, cat. 3006).
[…]

[1] = curve of first compound, second compound 0.0316 µM
[2] = curve of first compound, second compound 0.1 µM
[3] = curve of first compound, second compound 0.316 µM
[4] = curve of first compound, second compound 1 µM
[5] = curve of first compound, second compound 3.16 µM
[6] = curve of first compound, second compound 10 µM
[7] = second compound 0.0316 µM, first compound 0.0316 µM
[8] = second compound 0.0316 µM, first compound 0.316 µM
[9] = second compound 0.1 µM, first compound 0.0316 µM
[10] = second compound 0.1 µM, first compound 0.316 µM
[11] = second compound 0.316 µM, first compound 0.0316 µM
[12] = second compound 0.316 µM, first compound 0.316 µM
[13] = second compound 1 µM, first compound 0.0316 µM
[14] = second compound 1 µM, first compound 0.316 µM
[15] = second compound 3.16 µM, first compound 0.0316 µM
[16] = second compound 3.16 µM, first compound 0.316 µM
[17] = second compound 10 µM, first compound 0.0316 µM
[18] = second compound 10 µM, first compound 0.316 µM
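Also: spheroids exposed to compounds for 7 days.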
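For viability, T/C in this document: 100% = DMSO vehicle control viability.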

IC50 [1]: 1540 nM
IC50 [2]: 1720 nM
IC50 [3]: 173 nM
IC50 [4]: 232 nM
IC50 [5]: < 31.6 nM
IC50 [6]: < 31.6 nM
SMILES: CC1COCCN1c1cc(-c2ccnn2C)c2ccnc(-c3ccn[nH]3)c2n1 (stereo not drawn) + Cc1cnc(CNC(=O)c2c(=O)c3ccc(N4CCCN(C)CC4)nc3n3c2sc2ccccc23)cn1
viability, T/C [7]: 98%
viability, T/C (second compound 0.0316 µM, first compound 0.1 µM): 58.7%
viability, T/C [8]: 77.4%
viability, T/C (second compound 0.0316 µM, first compound 1 µM): 60.4%
viability, T/C (second compound 0.0316 µM, first compound 3.16 µM): 38.9%
viability, T/C (second compound 0.0316 µM, first compound 10 µM): 24.4%
viability, T/C [9]: 58.7%
viability, T/C (second compound 0.1 µM, first compound 0.1 µM): 82.7%
viability, T/C [10]: 95.9%
viability, T/C (second compound 0.1 µM, first compound 1 µM): 67.7%
viability, T/C (second compound 0.1 µM, first compound 3.16 µM): 29.1%
viability, T/C (second compound 0.1 µM, first compound 10 µM): 30.9%
viability, T/C [11]: 112%
viability, T/C (second compound 0.316 µM, first compound 0.1 µM): 52.6%
viability, T/C [12]: 49.8%
viability, T/C (second compound 0.316 µM, first compound 1 µM): 44.2%
viability, T/C (second compound 0.316 µM, first compound 3.16 µM): 28.3%
viability, T/C (second compound 0.316 µM, first compound 10 µM): 36.6%
viability, T/C [13]: 57.7%
viability, T/C (second compound 1 µM, first compound 0.1 µM): 62.4%
viability, T/C [14]: 43.1%
viability, T/C (second compound 1 µM, first compound 1 µM): 38.1%
viability, T/C (second compound 1 µM, first compound 3.16 µM): 28.2%
viability, T/C (second compound 1 µM, first compound 10 µM): 26.2%
viability, T/C [15]: 44.2%
viability, T/C (second compound 3.16 µM, first compound 0.1 µM): 33%
viability, T/C [16]: 37.4%
viability, T/C (second compound 3.16 µM, first compound 1 µM): 37.9%
viability, T/C (second compound 3.16 µM, first compound 3.16 µM): 42.9%
viability, T/C (second compound 3.16 µM, first compound 10 µM): 29.8%
viability, T/C [17]: 45.6%
viability, T/C (second compound 10 µM, first compound 0.1 µM): 41.2%
viability, T/C [18]: 26.7%
viability, T/C (second compound 10 µM, first compound 1 µM): 29.1%
viability, T/C (second compound 10 µM, first compound 3.16 µM): 28.8%
viability, T/C (second compound 10 µM, first compound 10 µM): 32.5%

SMILES: Cc1[nH]c2ccccc2c1CCNCc1ccc(/C=C/C(=O)NO)cc1 + Cc1[nH]c2ccc(F)cc2c1-c1nc2c3cccnc3c3ncccc3c2[nH]1
IC50 [1]: > 316 nM
IC50 [2]: 91 nM
IC50 [3]: 165 nM
IC50 [4]: > 316 nM
IC50 [5]: > 316 nM
IC50 [6]: 134 nM
viability, T/C (second compound 0.0316 µM, first compound 0.000999 µM): 99.7%
viability, T/C (second compound 0.0316 µM, first compound 0.00316 µM): 117%
viability, T/C (second compound 0.0316 µM, first compound 0.00999 µM): 115%
viability, T/C [7]: 120%
viability, T/C (second compound 0.0316 µM, first compound 0.0999 µM): 64.1%
viability, T/C [8]: 49.7%
viability, T/C (second compound 0.1 µM, first compound 0.000999 µM): 82.1%
viability, T/C (second compound 0.1 µM, first compound 0.00316 µM): 128%
viability, T/C (second compound 0.1 µM, first compound 0.00999 µM): 117%
viability, T/C [9]: 88.3%
viability, T/C (second compound 0.1 µM, first compound 0.0999 µM): 42%
viability, T/C [10]: 51.3%
viability, T/C (second compound 0.316 µM, first compound 0.000999 µM): 113%
viability, T/C (second compound 0.316 µM, first compound 0.00316 µM): 67.8%
viability, T/C (second compound 0.316 µM, first compound 0.00999 µM): 76%
viability, T/C [11]: 113%
viability, T/C (second compound 0.316 µM, first compound 0.0999 µM): 59.8%
viability, T/C [12]: 37.2%
viability, T/C (second compound 1 µM, first compound 0.000999 µM): 107%
viability, T/C (second compound 1 µM, first compound 0.00316 µM): 54.1%
viability, T/C (second compound 1 µM, first compound 0.00999 µM): 86.5%
viability, T/C [13]: 73.3%
viability, T/C (second compound 1 µM, first compound 0.0999 µM): 54.5%
viability, T/C [14]: 53.2%
viability, T/C (second compound 3.16 µM, first compound 0.000999 µM): 65.3%
viability, T/C (second compound 3.16 µM, first compound 0.00316 µM): 56.5%
viability, T/C (second compound 3.16 µM, first compound 0.00999 µM): 64.8%
viability, T/C [15]: 54%
viability, T/C (second compound 3.16 µM, first compound 0.0999 µM): 70.2%
viability, T/C [16]: 46.7%
viability, T/C (second compound 10 µM, first compound 0.000999 µM): 76.9%
viability, T/C (second compound 10 µM, first compound 0.00316 µM): 77.7%
viability, T/C (second compound 10 µM, first compound 0.00999 µM): 55%
viability, T/C [17]: 65.5%
viability, T/C (second compound 10 µM, first compound 0.0999 µM): 52.4%
viability, T/C [18]: 43.2%

IC50 (curve of compound): > 316 nM
SMILES: Cn1ncnc1[C@H]1c2n[nH]c(=O)c3cc(F)cc(c23)N[C@@H]1c1ccc(F)cc1
viability, T/C (compound 0.000999 µM): 83.7% and 86.3%
viability, T/C (compound 0.00316 µM): 82.9% and 98.9%
viability, T/C (compound 0.00999 µM): 105% and 58.1%
viability, T/C (compound 0.0316 µM): 92.4% and 96.9%
viability, T/C (compound 0.0999 µM): 119% and 84.3%
viability, T/C (compound 0.316 µM): 116% and 59.9%

IC50 (curve of compound): > 10000 nM
SMILES: O=c1[nH]cc(F)c(=O)[nH]1
viability, T/C (compound 0.0316 µM): 91.9%
viability, T/C (compound 0.1 µM): 115%
viability, T/C (compound 0.316 µM): 95.7%
viability, T/C (compound 1 µM): 107%
viability, T/C (compound 3.16 µM): 77%
viability, T/C (compound 10 µM): 80.2%

From PubChem BioAssay AID2060507 (Molecular Pharmacology Branch, DTP, NCI, 2025)
